Like-named read-outs stand apart in the source and are kept apart here.
What was measured:
Ovcar3-GTL catenae = experiment: Ovcar3-GTL catena drug sensitivity / proliferation screen (alamarBlue, 384-well)
Protocol: Cells were resuspended in M5-FCS to produce homogenous cultures of single cells which were seeded in 50 μL aliquots per well at the indicated cell densities and grown for the indicated times before addition of test compounds or other reagents.
For these experiments, 25 Ovcar3-GTL catena or 250 Ovcar3-GTL catena cells were seeded per well as described above. […] Five days after adding the test compound, alamarBlue® was added to the cultures and culture absorbance was measured 48 hours later.
The assays were conducted on catena cells with or without a glycocalyx coat and the IC50 values were determined.
Each compound was tested against three cellular entities (catena cells with or without the coat and established tumor spheroids) at 5 μM, 0.2 μM and 0.008 μM of compounds (with replicates).

[1] = test system: Ovcar3 monolayer (epithelial) cells; experiment: Ovarian cancer monolayer drug sensitivity (alamarBlue), Ovcar3; type: cell-based; settings: Homo sapiens
Protocol: (§1) The foregoing total of 29 compounds were tested in parallel on ovarian cancer monolayer cells by seeding 100 Ovcar3 monolayer (epithelial) or 25 Ovcar5 monolayer (mesenchymal) cells in 384-well plates. Drugs were added 4 days after cell seeding and cell viability was analyzed by alamarBlue staining. In general, catena cells with an established glycocalyx were on average 4-8 fold more resistant to these compounds when compared to monolayers. […]

catena cells [2] = experiment: Combination drug screening: paclitaxel after PEGylated enzyme treatment; type: cell-based
Protocol: Twenty-five […] seeded into 384-well plates. After 5 days, cells were treated with either PEGylated hyaluronidase, PEGylated collagenase or both for 10 minutes at 37° C. Without removing the enzymes, paclitaxel was added over a series of dilutions, followed by alamarBlue addition on day 9 with absorbance measured two days later.

catena cells [3] = experiment: Morphological observation of treated catenae under the microscope; type: cell-based
[4] = test system: Ovcar5 monolayer (mesenchymal) cells; experiment: Ovarian cancer monolayer drug sensitivity (alamarBlue), Ovcar5; type: cell-based; settings: Homo sapiens
Protocol: as §1

[5] = test system: low molecular weight complex of collagen and hyaluronan; experiment: Western blot (anti-COL1A2) of catena culture supernatant; type: biochemical
Text: The glycocalyx of the catena has two major components, i.e., hyaluronan and collagen, which interact and form a stable complex. […] Briefly, the supernatant fraction of catena cell cultures was separated from the cells by centrifugation. The supernatant was run in an SDS-PAGE gel and blotted with the anti-COL1A2 antibody. This complex was sensitive to hyaluronidase treatment but was not affected by collagenase type 1, 2 or 4 treatment. This hyaluronan-collagen complex could be important for the formation of catena glycocalyx and drug resistance or metastatic potential conferred to catena cells by the glycocalyx.

catena cells [6] = experiment: Growth of catena cells upon disruption of the glycocalyx; type: cell-based
Protocol: To investigate the how catena cells grow upon disruption of the glycocalyx, catenae were dissociated to single cells with hyaluronidase treatment and plated in tissue culture treated flasks with or without 10% hyaluronidase enzyme solution (10 mg/ml) to prevent the formation of glycocalyx. In parallel, catenae were dissociated mechanically and plated in the absence of hyaluronidase.

[7] = Viscosity of catena culture supernatant after enzyme treatment; settings: a few drops 10 mg/mL enzyme
Protocol: In contrast, Ovcar3-GTL epithelial cells were 98% positive for CA125 by FACS and secreted 800 units/ml of CA125 into culture media. For the ELISA, cell supernatants were collected by spinning the cultures at 300×g for 5 min to remove cells and assayed by CA125 ELISA using an automated instrument, ADVIA Centaur XP Immunoassay System (Siemens Healthcare Diagnostics Inc.).
Hyaluronan is a glycosaminoglycan found in extracellular matrix and functions to provide microenvironmental cues in a number of biological processes, including tumor development [Toole, 2004]. Supernatants prepared as above were treated with a few drops 10 mg/mL hyaluronidase (Sigma) in deionized water.

[8] = test system: glycocalyx surrounding a catena; experiment: Particle exclusion experiment with red blood cells; type: cell-based; settings: brief incubation with enzyme, RBCs overnight
Protocol: To visualize the glycocalyx surrounding a catena, a particle exclusion experiment was conducted using red blood cells (RBCs). Catenae were mechanically dissociated by pipetting or by brief incubation with hyaluronidase as before. RBCs from human peripheral blood were added and the mixture was incubated overnight in culture media. The cells were observed under the light microscope for the presence of a glycocalyx separating catena cells from the RBCs.

catena cells [9] = experiment: In vitro clonogenicity assay of catena cells; type: cell-based; settings: enzyme included in the clonogenic assay; attached cells
Text: Catena cells were dissociated with hyaluronidase, allowed to attach to tissue culture plates and grown in the presence hyaluronidase for 7 days. Under these conditions, cells remained attached to tissue culture plates. The cells were harvested and subjected to an in vitro clonogenicity assay in the presence and absence of hyaluronidase. In parallel, mechanically-dissociated catena were subjected to the in vitro clonogenicity assay in the presence and absence of hyaluronidase.

Row | Molecule | IC50 (Ovcar3-GTL catenae; 24 h, read-out: IC50 (μM) Addition on Day 1, Ovcar3-GTL catenae, compound added one day after seeding (cells predominantly lacking a glycocalyx)) [nM] | IC50 (Ovcar3-GTL catenae; 144 h, read-out: IC50 (μM) Addition on Day 6, Ovcar3-GTL catenae, compound added six days after seeding (established or substantial glycocalyx)) [nM] | IC50 (Ovcar3-GTL catenae; Homo sapiens, OVCAR-3, read-out: IC50 (μM) Ovcar3 catena, catena cells with an established glycocalyx (Table D)) [nM] | Increased Resistance of catena (Ovcar3-GTL catenae; catena with established glycocalyx versus monolayers) | IC50 ([1]; OVCAR-3, 96 h, 100 cells seeded, drugs added 4 days after seeding, read-out: IC50 (μM) Ovcar3 monolayer) [µM] | IC50 ([1]; OVCAR-3, subnanomolar to no more than 50 nM, read-out: IC50 Ovcar3 monolayer cells) [µM] | decrease of paclitaxel IC50 after PEGylated hyaluronidase (catena cells [2]; enzyme 10 min at 37° C. on day 5 before paclitaxel) [fold] | decrease of paclitaxel IC50 after combination of PEGylated hyaluronidase and PEGylated collagenase (catena cells [2]; enzymes 10 min at 37° C. on day 5 before paclitaxel) [fold] | cells seen in cultures treated with high concentrations of compounds (catena cells [3]; 100 μM (rapamycin 25 μM, lovastatin acid 50 μM), cells re-entered the cell cycle without drug) | IC50 ([4]; OVCAR-5, 96 h, 25 cells seeded, drugs added 4 days after seeding, read-out: IC50 (μM) Ovcar5 monolayer) [µM] | IC50 ([4]; OVCAR-5, subnanomolar to no more than 50 nM, read-out: IC50 Ovcar5 monolayer cells) [µM] | effect on hyaluronan-collagen complex (less than 20 kDa) [5] | growth of catena cells, continuous enzyme treatment (catena cells [6]; 10% enzyme solution (10 mg/ml) in culture) | growth of catena cells, brief enzyme treatment, plated without enzyme (catena cells [6]; dissociated to single cells with enzyme) | viscosity of culture supernatant [7] | glycocalyx coat in RBC particle exclusion [8] | colony size in clonogenic assay (catena cells [9]) | morphological change of treated catenae (catena cells [3]; microscope observation, listed as non-PEGylated hyaluronidase)
1 | CC(=O)O[C@H]1C(=O)[C@@]2(C)[C@H]([C@H](OC(=O)c3ccccc3)[C@]3(O)C[C@H](OC(=O)[C@H](O)[C@@H](NC(=O)c4ccccc4)c4ccccc4)C(C)=C1C3(C)C)[C@]1(OC(C)=O)CO[C@@H]1C[C@@H]2O [paclitaxel] | ≤ 0.012 | > 100000 | > 100000 | 4,000 fold | 0.025 | ≤ 0.05 | 2.5 | 16 | live, large single cells, i.e., cells arrested at mitosis | 0.025 | ≤ 0.05 | – | – | – | – | – | – | –
2 | hyaluronidase | – | – | – | – | – | – | – | – | – | – | – | sensitive | attached to tissue culture plates and formed epithelial and mesenchymal monolayers | no longer formed free floating chains but rather proliferated as irregular aggregates in suspension | rapidly reduced the viscosity | completely lacked a glycocalyx | further reduced | caused aggregation of catena cells

From US20150030583A1, “Methods of Treating Serosal Cancer” (SLOAN KETTERING INSTITUTE FOR CANCER RESEARCH, priority 2011, published 2015)
